Test results from article PMC4456386, “Ligand Recognition of the Major Birch Pollen Allergen Bet v 1 is Isoform Dependent” (PLoS ONE, 2015).
Entries after “also recorded” stand apart in the source; their conditions may differ. Like-named read-outs stand apart in the source and are kept apart here.

B1: Bet v 1d: recombinant hypoallergenic isoform of the major birch pollen allergen Bet v 1 (UniProt P43177) (protein, UniProt P43177 2-160, looked up)
Major pollen allergen Bet v …: GVFNYEIETTSVIPAARLFKAFILDGDNLVPKVAPQAISSVENIEGNGGPGTIKKINFPEGFPFKYVKDRVDEVDHTNFKYNYSVIEGGPVGDTLEKISNEIKIVATPDGGCVLKISNKYHTKGNHEVKAEQVKASKEMGETLLRAVESYLLAHSDAYN

How the values were obtained:
Bet v 1a [1] = target: T1, Bet v 1a (Betula pendula, UniProt P15494); test: 1H-15N HSQC NMR titration (chemical shift perturbation) of 15N-Bet v 1a; format: binding, Betula verrucosa; settings: for Kd per residue / Kd: Bet v 1a; for Kd per residue: one value per residue with Δδnorm > 0.08 ppm (residue named left of the cell), Int. Ex. = intermediate exchange; for Kd: NMR, average of all analysable residues with CSPs > 0.08 ppm, ± standard deviation, read-out: Dissociation constant Kd (averaged Kd app)
T1 construct: made in house
Experimental: (§1) All NMR experiments were performed at 298 K in 50 mM sodium phosphate buffer, 50 mM NaCl, pH 7.0, 10% deuterium oxide (^2H2O) with ^15N-uniformly labelled Bet v 1 isoforms using Bruker Avance 700 MHz and Avance 800 MHz spectrometers with cryogenically cooled triple-resonance probes equipped with pulsed field-gradient capabilities. NMR data were processed using NMRPipe and visualized with NMRViewJ [89]. Three-dimensional ^15N-edited NOESY (nuclear Overhauser enhancement spectroscopy, mixing times 120 ms) experiments to assign chemical shifts were obtained with 500 μM ^15N-labeled samples of Bet v 1 isoform d or m and yielded 91% of assigned residues for Bet v 1d and 89% for Bet v 1m. The sequence-specific assignments of the amide resonances of Bet v 1a are reported elsewhere.
(§2) Interaction of Q3OS with the Bet v 1 isoforms was measured by incubating 700 μM Q3OS with 50 μM of each ^15N-labeled Bet v 1 isoform in 50 mM sodium phosphate, 50 mM NaCl buffer, pH 7.0.
(§3) For titration experiments all other flavonoids were dissolved in deuterated DMSO, while glucose and galactose were dissolved in 50 mM sodium phosphate buffer, 50 mM NaCl, pH 7.0, 10% deuterium oxide and titrated stepwise to a final excess of up to 17-fold to protein samples (ca. 100 μM). […] CSPs for ligand binding were calculated based on Eq (2): […] (2) ΔδHN and ΔδN, chemical shift differences of amide proton and nitrogen resonances, respectively, in ppm.
(§4) K d values for flavonoid binding were determined with NMRViewJ [89]. All analysable amino acid residues that were unaffected by DMSO addition and showing CSPs > 0.08 ppm were fitted to a quadratic binding curve with default settings, and an average K d app was calculated (Table 1 and S1–S3 Tables). The CSPs of all residues showing CSPs > 0.04 ppm were mapped either on models of Bet v 1d and Bet v 1m or on the Bet v 1a structure (pdb code 1BV1, [29]).

Bet v 1m [2] = target: T2, Bet v 1m (Betula pendula, UniProt P43186); test: 1H-15N HSQC NMR titration (chemical shift perturbation) of 15N-Bet v 1m; format: binding, Betula verrucosa
T2 construct: made in house
Experimental: as §1, §2, §3, §4

Bet v 1d = target: T3, Bet v 1d (Betula pendula, UniProt P43177); test: 1H-15N HSQC NMR titration (chemical shift perturbation) of 15N-Bet v 1d; format: binding, Betula verrucosa; settings: for binding to Bet v 1d (in words): 1H-15N HSQC titration, up to 15-fold excess; for Dissociation constant Kd (averaged Kd app): NMR, Bet v 1d, average of all analysable residues with CSPs > 0.08 ppm, ± standard deviation
T3 construct: made in house
Experimental: as §1, §2, §3, §4

[3] = test system: serum IgE binding to surface-coated Bet v 1a, Bet v 1d and Bet v 1m; test: Indirect ELISA for IgE binding to Bet v 1 isoforms; design: species or system human; settings: for influence of ligand on IgE binding of Bet v 1 isoforms: 5-fold molar excess of ligand, isoforms a, d, m
From the text: (§5) Fifteen sera of birch pollen-allergic subjects were collected, tested, and pooled according to the guideline of the European Medicines Agency (EMEA/CHMP/BWP/304831/2007). The serum pool is routinely used for batch-release testing of birch pollen-derived allergenic products at the Paul-Ehrlich-Institut. The same serum pool was used for both, ELISA and mediator release assays.
For IgE-ELISA experiments, Maxisorp plates (Nunc via Fisher Scientific) were coated overnight at room temperature with 50 ng/100 μl recombinant Bet v 1 isoforms a, d, or m with a 5-fold molar excess of quercetin-3-O-sophorose, rutin, quercetin, quercetin-3-O-glucoside, quercetin-3-O-galactoside, or sophorose, respectively, in phosphate-buffered saline (PBS). After blocking with PBS containing 2% bovine serum albumin (BSA) these plates and an uncoated control were incubated with a dilution series of a serum pool of birch-pollen allergic subjects for 1 h at room temperature with PBS containing 0.05% Tween 20 and 0.1% BSA. Allergen-specific human IgE was detected with a horseradish peroxidase-conjugated mouse anti-human IgE antibody (Clone B3102E8, Southern biotech via Biozol, Eching, Germany) diluted 1:1000. 3,3′,5,5′-tetramethylbenzidine (Roth, Karlsruhe) was used as substrate for horseradish peroxidase, and the absorbance at 450 nm was measured after stopping the reaction with 25% H2SO4.

[4] = test system: humanized rat basophil leukemia (RBL) cells; test: β-Hexosaminidase release (mediator release) assay; format: cell-based
Experimental: as §5
The mediator release assay was performed according to an established protocol. […] After washing, cells were stimulated with serial dilutions of Bet v 1 isoforms a, d, or m in Tyrode's buffer containing […]. For complex formation, the Bet v 1 isoforms were incubated overnight with a 5-fold molar excess of Q3OS, rutin, quercetin, Q3OGlc, Q3OGal, or sophorose, respectively, before stimulating the cells. Degranulation was quantified by photometric measurement of β-hexosaminidase activity in the culture supernatants. The percentage of β-hexosaminidase activity relative to cells lysed with Triton X-100 (Sigma-Aldrich, Steinheim, Germany) was calculated and corrected for spontaneous release (sensitized cells without allergen).

[5] = UV/VIS absorption spectra of unbound flavonoids; format: physicochemical; settings: pH 7.0
Experimental: All flavonoids and Bet v 1 isoforms were dissolved in 50 mM sodium phosphate, 50 mM NaCl, 10% (v/v) DMSO, pH 7.0, to a final concentration of 10 to 20 μM in 500 μl. Absorption spectra from 200–800 nm were recorded at 25°C in a 1 cm quartz cuvette (Hellma GmbH) using a 8453 UV-visible spectrophotometer (Agilent).

Bet v 1m [6] = target: T2, Bet v 1m; test: 1H-15N HSQC NMR titration (chemical shift perturbation) of 15N-Bet v 1m; format: binding, Betula verrucosa; settings: 1H-15N HSQC titration, up to 15-fold excess
Bet v 1a [7] = target: T1, Bet v 1a; settings: Fluorescence, read-out: Dissociation constant Kd; cited from earlier work

T2 sequence (P43186 whole entry): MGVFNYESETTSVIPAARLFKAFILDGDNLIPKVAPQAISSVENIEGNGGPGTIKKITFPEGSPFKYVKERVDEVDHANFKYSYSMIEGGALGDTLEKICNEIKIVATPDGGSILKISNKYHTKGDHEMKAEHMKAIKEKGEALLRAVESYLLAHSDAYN
T1 sequence (P15494 whole entry): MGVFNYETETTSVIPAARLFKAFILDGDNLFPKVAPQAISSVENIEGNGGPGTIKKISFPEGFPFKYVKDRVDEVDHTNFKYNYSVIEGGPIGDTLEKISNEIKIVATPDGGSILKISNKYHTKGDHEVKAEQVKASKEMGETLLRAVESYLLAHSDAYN
T3 sequence (P43177 whole entry): as the sequence (P15494 whole entry) above, with T8I, F31V, S58N, I92V, S113C, I114V, D126N counted along it

Row | Molecule | Kd per residue (Bet v 1a [1]) | Kd (Bet v 1a [1]) [nM] | Dissociation constant Kd (averaged Kd app) (Bet v 1m [2]; NMR, average of all analysable residues with CSPs > 0.08 ppm, ± standard deviation) | binding to Bet v 1d (in words) (Bet v 1d) | Dissociation constant Kd (averaged Kd app) (Bet v 1d) | influence of ligand on IgE binding of Bet v 1 isoforms [3] | influence of ligand on mediator release induced by Bet v 1 isoforms ([4]; 5-fold molar excess of ligand, isoforms a, d, m) | Absorption maxima, Flavonoid [5] [nm] | binding to Bet v 1m (in words) (Bet v 1m [6]) | Kd (Bet v 1a [7]) [nM] | binding to Bet v 1a (in words) (Bet v 1a [1]; 1H-15N HSQC titration) | Kd (Bet v 1m [2]; NMR, average of all analysable residues with CSPs > 0.08 ppm, ± standard deviation, read-out: Dissociation constant Kd (averaged Kd app)) [nM] | Kd per residue (Bet v 1m [2]; one value per residue with Δδnorm > 0.08 ppm (residue named left of the cell), Int. Ex. = intermediate exchange) | IgE-binding capacity ([3]; absence of ligands, pool serum of birch pollen-allergic subjects) | shift to higher concentration for half-maximum release of β-hexosaminidase in comparison to the other isoforms ([4]; absence of ligands)
1 | O=c1c(O[C@@H]2O[C@H](CO)[C@@H](O)[C@H](O)[C@H]2O[C@@H]2O[C@H](CO)[C@@H](O)[C@H](O)[C@H]2O)c(-c2ccc(O)c(O)c2)oc2cc(O)cc(O)c12 [Q3OS, quercetin-3-O-sophoroside] | Int./Slow Ex. | < 1000 | No binding | did not produce significant CSPs | No binding | does not significantly influence | does not significantly influence | 358 | did not lead to significant CSPs | 570 |  |  |  |  | 
2 | O=c1c(O[C@@H]2O[C@H](CO)[C@H](O)[C@H](O)[C@H]2O)c(-c2ccc(O)c(O)c2)oc2cc(O)cc(O)c12 [Q3OGal, quercetin-3-O-galactoside] | Int. Ex. | < 5000 |  | Weak affinity; also recorded: did not produce significant CSPs | No binding | did not modify IgE-binding |  | 358 | High affinity |  | high affinity; also recorded: strong | < 5000 | Int. Ex. |  | 
3 | B1 |  |  |  |  |  |  |  |  |  |  |  |  |  | only marginal | approximately 10 fold
